Where two headings read alike, the source gives them in different places.
How the values were obtained:
Type in all cases: cell-based
HEK293 pGL4 = assay: Firefly_pGL signal, cmpd/DMSO (pGL4 control cells); conditions: Homo sapiens
Renilla = Renilla signal in NR2F6 agonist screening, cmpd/DMSO; conditions: Renilla, F4
NR2F6 = molecular target: T1, NR2F6 (Homo sapiens, UniProt P10588); assay: NR2F6 agonist screening, Firefly signal cmpd/DMSO
T1 construct: expressed in transfected cells; also transient transfection
T1 sequence (P10588 1-404): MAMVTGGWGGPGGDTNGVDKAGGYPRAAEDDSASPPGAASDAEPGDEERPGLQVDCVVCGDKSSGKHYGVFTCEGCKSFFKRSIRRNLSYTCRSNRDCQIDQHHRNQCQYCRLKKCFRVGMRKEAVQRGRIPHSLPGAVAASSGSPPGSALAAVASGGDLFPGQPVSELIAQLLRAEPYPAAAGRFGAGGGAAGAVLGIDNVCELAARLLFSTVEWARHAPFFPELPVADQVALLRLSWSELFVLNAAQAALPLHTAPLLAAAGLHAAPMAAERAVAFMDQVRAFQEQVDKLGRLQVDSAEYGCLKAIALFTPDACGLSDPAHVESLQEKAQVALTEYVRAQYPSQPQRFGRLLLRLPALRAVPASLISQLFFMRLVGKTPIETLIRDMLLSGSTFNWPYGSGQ

NR2F6 LBD = molecular target: T2, NR2F6 LBD (Homo sapiens, UniProt P10588); assay: NR2F6 LBD transient transfection; conditions: LBD
T2 construct: expressed in transfected cells
T2 sequence (P10588 165-393 limits assumed): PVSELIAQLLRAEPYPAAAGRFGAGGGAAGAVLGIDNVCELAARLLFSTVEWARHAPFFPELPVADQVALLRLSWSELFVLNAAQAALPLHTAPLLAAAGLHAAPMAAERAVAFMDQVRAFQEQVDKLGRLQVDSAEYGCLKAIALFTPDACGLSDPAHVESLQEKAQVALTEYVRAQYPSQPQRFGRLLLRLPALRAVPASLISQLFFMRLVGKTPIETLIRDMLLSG
How it was run: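 LBD-transfected cells treated at 40, 10, 2 and 0.5 μM (4 replicates); cytotoxicity measured in parallel, normalized to DMSO (0%) and zero signal (100%). Higher concentrations excluded where signal loss reflected toxicity.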

[1] = HEK293, 0.5 uM, pGL4, read-out: Firefly pGL4, cmpd/DMSO (mean)
[2] = HEK293, 2 uM, pGL4, read-out: Firefly pGL4, cmpd/DMSO (mean)
[3] = HEK293, 10 uM, pGL4, read-out: Firefly pGL4, cmpd/DMSO (mean)
[4] = HEK293, 40 uM, pGL4, read-out: Firefly pGL4, cmpd/DMSO (mean)
[5] = HEK293, pGL4, 1% FBS, 0.5 uM, read-out: Firefly, pGL4, 1% FBS, cmpd/DMSO (mean)
[6] = HEK293, pGL4, 1% FBS, 2 uM, read-out: Firefly, pGL4, 1% FBS, cmpd/DMSO (mean)
[7] = HEK293, pGL4, 1% FBS, 10 uM, read-out: Firefly, pGL4, 1% FBS, cmpd/DMSO (mean)
[8] = HEK293, pGL4, 1% FBS, 40 uM, read-out: Firefly, pGL4, 1% FBS, cmpd/DMSO (mean)
[9] = HEK293, pGL4, 10% FBS, 0.5 uM, read-out: Firefly, pGL4, 10% FBS, cmpd/DMSO (mean)
[10] = HEK293, pGL4, 10% FBS, 2 uM, read-out: Firefly, pGL4, 10% FBS, cmpd/DMSO (mean)
[11] = HEK293, pGL4, 10% FBS, 10 uM, read-out: Firefly, pGL4, 10% FBS, cmpd/DMSO (mean)
[12] = HEK293, pGL4, 10% FBS, 40 uM, read-out: Firefly, pGL4, 10% FBS, cmpd/DMSO (mean)
[13] = read-out: Renilla, F4, cmpd/DMSO (mean)
[14] = 1% FBS, read-out: Renilla, F4, 1% FBS, cmpd/DMSO (mean)
[15] = 10% FBS, read-out: Renilla, F4, 10% FBS, cmpd/DMSO (mean)

CCC(C)N[C@H]1CS(=O)(=O)C[C@@H]1S(=O)(=O)c1ccc(C)cc1 (stereo partly shown) [Compound D113]
fold induction at 0.5 µM (HEK293 pGL4; [1]): 1.2 | fold induction at 2 µM (HEK293 pGL4; [2]): 1.1 | fold induction at 10 µM (HEK293 pGL4; [3]): 2.6 | fold induction at 40 µM (HEK293 pGL4; [4]): 2 | fold induction at 0.5 µM (HEK293 pGL4; [5]): 1 | fold induction at 2 µM (HEK293 pGL4; [6]): 1.2 | fold induction at 10 µM (HEK293 pGL4; [7]): 1.8 | fold induction at 40 µM (HEK293 pGL4; [8]): 1.6 | fold induction at 0.5 µM (HEK293 pGL4; [9]): 1.1 | fold induction at 2 µM (HEK293 pGL4; [10]): 1.2 | fold induction at 10 µM (HEK293 pGL4; [11]): 1.7 | fold induction at 40 µM (HEK293 pGL4; [12]): 2.5 | fold induction at 0.5 µM (Renilla; [13]): 1.1 | fold induction at 2 µM (Renilla; [13]): 1 | fold induction at 10 µM (Renilla; [13]): 1.3 | fold induction at 40 µM (Renilla; [13]): 1.4 | fold induction at 0.5 µM (Renilla; [14]): 1.3 | fold induction at 2 µM (Renilla; [14]): 1.2 | fold induction at 10 µM (Renilla; [14]): 1.6 | fold induction at 40 µM (Renilla; [14]): 1.8 | fold induction at 0.5 µM (Renilla; [15]): 1 | fold induction at 2 µM (Renilla; [15]): 1 | fold induction at 10 µM (Renilla; [15]): 1.2 | fold induction at 40 µM (Renilla; [15]): 1.8 | Firefly F4, cmpd/DMSO (mean) (NR2F6; 0.5 uM): 1.3 | Firefly F4, cmpd/DMSO (mean) (NR2F6; 2 uM): 1.6 | Firefly F4, cmpd/DMSO (mean) (NR2F6; 10 uM): 2.8 | Firefly F4, cmpd/DMSO (mean) (NR2F6; 40 uM): 3.3 | F4, Firefly/Renilla for S/B(F4) > 3 (NR2F6; 10% FBS, 40 uM): 3.2 | Firefly, F4/pGL4 for S/B(F4) > 3 (NR2F6; 10% FBS, 40 uM): 2.3 | Firefly, F4, 1% FBS, cmpd/DMSO (mean) (NR2F6; 0.5 uM): 1.4 | Firefly, F4, 1% FBS, cmpd/DMSO (mean) (NR2F6; 2 uM): 1.1 | Firefly, F4, 1% FBS, cmpd/DMSO (mean) (NR2F6; 10 uM): 2.8 | Firefly, F4, 1% FBS, cmpd/DMSO (mean) (NR2F6; 40 uM): 2.5 | Firefly, F4, 10% FBS, cmpd/DMSO (mean) (NR2F6; 10% FBS, 0.5 uM): 1.7 | Firefly, F4, 10% FBS, cmpd/DMSO (mean) (NR2F6; 10% FBS, 2 uM): 1.5 | Firefly, F4, 10% FBS, cmpd/DMSO (mean) (NR2F6; 10% FBS, 10 uM): 2.1 | Firefly, F4, 10% FBS, cmpd/DMSO (mean) (NR2F6; 10% FBS, 40 uM): 5.8 | Firefly LBD, cmpd/DMSO (mean) (NR2F6 LBD; 0.5 uM): 1.1 | Firefly LBD, cmpd/DMSO (mean) (NR2F6 LBD; 2 uM): 1.3 | Firefly LBD, cmpd/DMSO (mean) (NR2F6 LBD; 10 uM): 2.2 | Firefly LBD, cmpd/DMSO (mean) (NR2F6 LBD; 40 uM): 2.5

O=S1(=O)C[C@H](NCc2ccncc2)[C@@H](S(=O)(=O)c2cccs2)C1 [Compound D108]
fold induction at 0.5 µM (HEK293 pGL4; [1]): 0.9 | fold induction at 2 µM (HEK293 pGL4; [2]): 1 | fold induction at 10 µM (HEK293 pGL4; [3]): 1.2 | fold induction at 40 µM (HEK293 pGL4; [4]): 1.5 | fold induction at 0.5 µM (HEK293 pGL4; [5]): 1.5 | fold induction at 2 µM (HEK293 pGL4; [6]): 1.2 | fold induction at 10 µM (HEK293 pGL4; [7]): 1.2 | fold induction at 40 µM (HEK293 pGL4; [8]): 1.1 | fold induction at 0.5 µM (HEK293 pGL4; [9]): 1.1 | fold induction at 2 µM (HEK293 pGL4; [10]): 1.1 | fold induction at 10 µM (HEK293 pGL4; [11]): 1.1 | fold induction at 40 µM (HEK293 pGL4; [12]): 1.4 | fold induction at 0.5 µM (Renilla; [13]): 1 | fold induction at 2 µM (Renilla; [13]): 1 | fold induction at 10 µM (Renilla; [13]): 1.1 | fold induction at 40 µM (Renilla; [13]): 1.2 | fold induction at 0.5 µM (Renilla; [14]): 1 | fold induction at 2 µM (Renilla; [14]): 1.2 | fold induction at 10 µM (Renilla; [14]): 1.1 | fold induction at 40 µM (Renilla; [14]): 1.4 | fold induction at 0.5 µM (Renilla; [15]): 1 | fold induction at 2 µM (Renilla; [15]): 0.9 | fold induction at 10 µM (Renilla; [15]): 1 | fold induction at 40 µM (Renilla; [15]): 1.4 | Firefly F4, cmpd/DMSO (mean) (NR2F6; 0.5 uM): 1.0 | Firefly F4, cmpd/DMSO (mean) (NR2F6; 2 uM): 1.3 | Firefly F4, cmpd/DMSO (mean) (NR2F6; 10 uM): 1.3 | Firefly F4, cmpd/DMSO (mean) (NR2F6; 40 uM): 1.9 | Firefly, F4, 1% FBS, cmpd/DMSO (mean) (NR2F6; 0.5 uM): 1.2 | Firefly, F4, 1% FBS, cmpd/DMSO (mean) (NR2F6; 2 uM): 1.1 | Firefly, F4, 1% FBS, cmpd/DMSO (mean) (NR2F6; 10 uM): 1.1 | Firefly, F4, 1% FBS, cmpd/DMSO (mean) (NR2F6; 40 uM): 1.8 | Firefly, F4, 10% FBS, cmpd/DMSO (mean) (NR2F6; 10% FBS, 0.5 uM): 1.2 | Firefly, F4, 10% FBS, cmpd/DMSO (mean) (NR2F6; 10% FBS, 2 uM): 1.0 | Firefly, F4, 10% FBS, cmpd/DMSO (mean) (NR2F6; 10% FBS, 10 uM): 1.1 | Firefly, F4, 10% FBS, cmpd/DMSO (mean) (NR2F6; 10% FBS, 40 uM): 2.2 | Firefly LBD, cmpd/DMSO (mean) (NR2F6 LBD; 0.5 uM): 1.0 | Firefly LBD, cmpd/DMSO (mean) (NR2F6 LBD; 2 uM): 1.4 | Firefly LBD, cmpd/DMSO (mean) (NR2F6 LBD; 10 uM): 1.3 | Firefly LBD, cmpd/DMSO (mean) (NR2F6 LBD; 40 uM): 2.1

Source: patent publication US11377442B2, “Small molecule agonists and antagonists of NR2F6 activity” (ZANDER THERAPEUTICS, INC., priority 2016, dated 2022)
